According to patent US20170210723A1, “MOLECULES HAVING PESTICIDAL UTILITY, AND INTERMEDIATES, COMPOSITIONS, AND PROCESSES, RELATED THERETO” (priority 2016, published 2017):

Legend:
[1] = tested on: Beet Armyworm (Spodoptera exigua); assay: Bioassays on BAW, 128-well diet tray assay; type: in vivo; details: Spodoptera exigua; for mortality at 50 µg/cm2: 168 h, 50 μg/cm^2 on artificial diet, second instar larvae, five to seven days, read-out: BAW % Control (or Mortality) rating
Experimental: Bioassays on BAW were conducted using a 128-well diet tray assay. One to five second instar BAW larvae were placed in each well (3 mL) of the diet tray that had been previously filled with 1 mL of artificial diet to which 50 μg/cm^2 of the test molecule (dissolved in 50 μL of 90:10 acetone-water mixture) had been applied (to each of eight wells) and then allowed to dry. Trays were covered with a clear self-adhesive cover and held at 25° C., 14:10 light-dark for five to seven days. Percent mortality was recorded for the larvae in each well; activity in the eight wells was then averaged. The results are indicated in the table entitled “Table ABC: Biological Results” (See Table Section).
(§1) Bioassays on BAW and CL were conducted according to the procedures outlined in Example A: Bioassays on Beet Armyworm (“BAW”) and Cabbage Looper (“CL”) using the indicated concentrations.

[2] = tested on: Cabbage Looper (Trichoplusia ni); assay: Bioassays on CL, 128-well diet tray assay; type: in vivo; details: Trichoplusia ni; for mortality at 50 µg/cm2: 168 h, 50 μg/cm^2 on artificial diet, second instar larvae, five to seven days, read-out: CL % Control (or Mortality) rating
Experimental: Bioassays on CL were conducted using a 128-well diet tray assay.
One to five second instar CL larvae were placed in each well (3 mL) of the diet tray that had been previously filled with 1 mL of artificial diet to which 50 μg/cm^2 of the test molecule (dissolved in 50 μL of 90:10 acetone-water mixture) had been applied (to each of eight wells) and then allowed to dry. Trays were covered with a clear self-adhesive cover and held at 25° C., 14:10 light-dark for five to seven days. Percent mortality was recorded for the larvae in each well; activity in the eight wells was then averaged. The results are indicated in the table entitled “Table ABC: Biological Results” (See Table Section).
as §1

## C[C@H](CS(=O)(=O)CC(F)(F)F)NC(=O)c1ccc(/C=C/C(c2cc(Cl)c(Cl)c(Br)c2)C(F)(F)F)cc1C(F)(F)F (stereo partly drawn) [F114, 4-((E)-3-(3-Bromo-4,5-dichlorophenyl)-4,4,4-trifluorobut-1-en-1-yl)-N—((R)-1-((2,2,2-trifluoroethyl)sulfonyl)propan-2-yl)-2-(trifluoromethyl)benzamide]
[1]
  mortality at 50 µg/cm2: 50 to 100%
[2]
  mortality at 50 µg/cm2: 50 to 100%

## C=Cc1cc(C(/C=C/c2ccc(C(=O)N[C@H](C)CS(=O)(=O)CC(F)(F)F)c(C(F)(F)F)c2)C(F)(F)F)cc(Cl)c1Cl (stereo partly drawn) [F115, 4-((E)-3-(3,4-Dichloro-5-vinylphenyl)-4,4,4-trifluorobut-1-en-1-yl)-N—((R)-1-((2,2,2-trifluoroethyl)sulfonyl)propan-2-yl)-2-(trifluoromethyl)benzamide]
[1]
  mortality at 50 µg/cm2: 50 to 100%
[2]
  mortality at 50 µg/cm2: 50 to 100%

## C[C@H](CSCC(F)(F)F)NC(=O)c1ccc(/C=C/C(c2cc(Cl)c(Cl)c(Br)c2)C(F)(F)F)cc1C(F)(F)F (stereo partly drawn) [F116, 4-((E)-3-(3-Bromo-4,5-dichlorophenyl)-4,4,4-trifluorobut-1-en-1-yl)-N—((R)-1-((2,2,2-trifluoroethyl)thio)propan-2-yl)-2-(trifluoromethyl)benzamide]
[1]
  mortality at 50 µg/cm2: 50 to 100%
[2]
  mortality at 50 µg/cm2: 50 to 100%

## C[C@H](C[S+]([O-])CC(F)(F)F)NC(=O)c1ccc(/C=C/C(c2ccc(Cl)c(Cl)c2)C(F)(F)F)cc1Br (stereo partly drawn) [F117, 2-Bromo-4-((E)-3-(3,4-dichlorophenyl)-4,4,4-trifluorobut-1-en-1-yl)-N-((2R)-1-((2,2,2-trifluoroethyl)sulfinyl)propan-2-yl)benzamide]
[1]
  mortality at 50 µg/cm2: 50 to 100%
[2]
  mortality at 50 µg/cm2: 50 to 100%

## C[C@H](CS(=O)(=O)CC(F)(F)F)NC(=O)c1ccc(/C=C/C(c2cc(Br)cc(OCC(F)(F)F)c2)C(C)(F)F)cc1C(F)(F)F (stereo partly drawn) [F120, 4-((E)-3-(3-Bromo-5-(2,2,2-trifluoroethoxy)phenyl)-4,4-difluoropent-1-en-1-yl)-N—((R)-1-((2,2,2-trifluoroethyl)sulfonyl)propan-2-yl)-2-(trifluoromethyl)benzamide]
[1]
  mortality at 50 µg/cm2: 50 to 100%
[2]
  mortality at 50 µg/cm2: 50 to 100%

## C[C@H](C[S+]([O-])CCF)NC(=O)c1ccc(/C=C/C(c2cc(Cl)c(Cl)c(Cl)c2)C(C)(F)F)cc1C(F)(F)F (stereo partly drawn) [F121, 4-((E)-4,4-Difluoro-3-(3,4,5-trichlorophenyl)pent-1-en-1-yl)-N-((2R)-1-((2-fluoroethyl)sulfinyl)propan-2-yl)-2-(trifluoromethyl)benzamide]
[1]
  mortality at 50 µg/cm2: 50 to 100%
[2]
  mortality at 50 µg/cm2: 50 to 100%

## C[C@H](CS(=O)(=O)CCF)NC(=O)c1ccc(/C=C/C(c2cc(Cl)c(Cl)c(Cl)c2)C(C)(F)F)cc1C(F)(F)F (stereo partly drawn) [F122, 4-((E)-4,4-Difluoro-3-(3,4,5-trichlorophenyl)pent-1-en-1-yl)-N—((R)-1-((2-fluoroethyl)sulfonyl)propan-2-yl)-2-(trifluoromethyl)benzamide]
[1]
  mortality at 50 µg/cm2: 50 to 100%
[2]
  mortality at 50 µg/cm2: 50 to 100%

## C[C@H](CS(=O)(=O)CC(F)(F)F)NC(=O)c1ccc(/C=C/C(c2ccc(C(F)(F)F)c(F)c2)C(C)(F)F)cc1C(F)(F)F (stereo partly drawn) [F123, 4-((E)-4,4-Difluoro-3-(3-fluoro-4-(trifluoromethyl)phenyl)pent-1-en-1-yl)-N—((R)-1-((2,2,2-trifluoroethyl)sulfonyl)propan-2-yl)-2-(trifluoromethyl)benzamide]
[1]
  mortality at 50 µg/cm2: 50 to 100%
[2]
  mortality at 50 µg/cm2: 50 to 100%

## C[C@H](CS(=O)(=O)CC(F)(F)F)NC(=O)c1ccc(/C=C/C(c2ccc(Cl)c(Cl)c2)C(F)(F)F)cc1Br (stereo partly drawn) [F124, 2-Bromo-4-((E)-3-(3,4-dichlorophenyl)-4,4,4-trifluorobut-1-en-1-yl)-N—((R)-1-((2,2,2-trifluoroethyl)sulfonyl)propan-2-yl)benzamide]
[1]
  mortality at 50 µg/cm2: 50 to 100%
[2]
  mortality at 50 µg/cm2: 50 to 100%

## CC(F)(F)C(/C=C/c1ccc(C(=O)NCC[S+]([O-])CCF)c(C(F)(F)F)c1)c1cc(Cl)c(Cl)c(Cl)c1 (stereo not drawn) [F129, (E)-4-(4,4-Difluoro-3-(3,4,5-trichlorophenyl)pent-1-en-1-yl)-N-(2-((2-fluoroethyl)sulfinyl)ethyl)-2-(trifluoromethyl)benzamide]
[1]
  mortality at 50 µg/cm2: 50 to 100%
[2]
  mortality at 50 µg/cm2: 50 to 100%

## C[C@H](CS(=O)(=O)CC(F)(F)F)NC(=O)c1ccc(/C=C/C(c2cc(Cl)c(Cl)c(Cl)c2)C(C)(F)F)cc1Br (stereo partly drawn) [F130, 2-bromo-4-((E)-4,4-difluoro-3-(3,4,5-trichlorophenyl)pent-1-en-1-yl)-N—((R)-1-((2,2,2-trifluoroethyl)sulfonyl)propan-2-yl)benzamide]
[1]
  mortality at 50 µg/cm2: 50 to 100%
[2]
  mortality at 50 µg/cm2: 50 to 100%

## C[C@H](CS(=O)(=O)CC(F)(F)F)NC(=O)c1ccc(/C=C/C(c2cc(Cl)cc(Cl)c2)C(C)(F)F)cc1Br (stereo partly drawn) [F133, 2-Bromo-4-((E)-3-(3,5-dichlorophenyl)-4,4-difluoropent-1-en-1-yl)-N—((R)-1-((2,2,2-trifluoroethyl)sulfonyl)propan-2-yl)benzamide]
[1]
  mortality at 50 µg/cm2: 50 to 100%
[2]
  mortality at 50 µg/cm2: 50 to 100%

## C[C@H](CS(=O)(=O)CC(F)(F)F)NC(=O)c1ccc(/C=C/C(c2ccc(F)c(C(F)(F)F)c2)C(C)(F)F)cc1C(F)(F)F (stereo partly drawn) [F135, 4-((E)-4,4-Difluoro-3-(4-fluoro-3-(trifluoromethyl)phenyl)pent-1-en-1-yl)-N—((R)-1-((2,2,2-trifluoroethyl)sulfonyl)propan-2-yl)-2-(trifluoromethyl)benzamide]
[1]
  mortality at 50 µg/cm2: 50 to 100%
[2]
  mortality at 50 µg/cm2: 50 to 100%

## C[C@H](CS(=O)(=O)CC(F)(F)F)NC(=O)c1ccc(/C=C/C(c2cc(F)c(F)c(F)c2)C(C)(F)F)cc1C(F)(F)F (stereo partly drawn) [F136, 4-((E)-4,4-Difluoro-3-(3,4,5-trifluorophenyl)pent-1-en-1-yl)-N—((R)-1-((2,2,2-trifluoroethyl)sulfonyl)propan-2-yl)-2-(trifluoromethyl)benzamide]
[1]
  mortality at 50 µg/cm2: 50 to 100%
[2]
  mortality at 50 µg/cm2: 50 to 100%

## C[C@H](CSCC(F)(F)F)NC(=O)c1ccc(/C=C/C(c2ccc(Cl)c(Cl)c2)C(F)(F)F)cc1Br (stereo partly drawn) [F137, 2-Bromo-4-((E)-3-(3,4-dichlorophenyl)-4,4,4-trifluorobut-1-en-1-yl)-N—((R)-1-((2,2,2-trifluoroethyl)thio)propan-2-yl)benzamide]
[1]
  mortality at 50 µg/cm2: 50 to 100%
[2]
  mortality at 50 µg/cm2: 50 to 100%

## C[C@H](CSCC(F)(F)F)NC(=O)c1ccc(/C=C/C(c2cc(Cl)c(Cl)c(Cl)c2)C(F)(F)F)cc1 (stereo partly drawn) [FC74, 4-((E)-4,4,4-Trifluoro-3-(3,4,5-trichlorophenyl)but-1-en-1-yl)-N—((R)-1-((2,2,2-trifluoroethyl)thio)propan-2-yl)benzamide]
[1]
  mortality at 50 µg/cm2: 50 to 100%
[2]
  mortality at 50 µg/cm2: 50 to 100%

## C[C@H](C[S+]([O-])CC(F)(F)F)NC(=O)c1ccc(/C=C/C(c2cc(Cl)c(Cl)c(Cl)c2)C(F)(F)F)cc1 (stereo partly drawn) [FC77, 4-((E)-4,4,4-Trifluoro-3-(3,4,5-trichlorophenyl)but-1-en-1-yl)-N-((2R)-1-((2,2,2-trifluoroethyl)sulfinyl)propan-2-yl)benzamide]
[1]
  mortality at 50 µg/cm2: 50 to 100%
[2]
  mortality at 50 µg/cm2: 50 to 100%

## C[C@H](CS(=O)(=O)CC(F)(F)F)NC(=O)c1ccc(/C=C/C(c2cc(Cl)c(Cl)c(Cl)c2)C(F)(F)F)cc1 (stereo partly drawn) [FC78, 4-((E)-4,4,4-Trifluoro-3-(3,4,5-trichlorophenyl)but-1-en-1-yl)-N—((R)-1-((2,2,2-trifluoroethyl)sulfonyl)propan-2-yl)benzamide]
[1]
  mortality at 50 µg/cm2: 50 to 100%
[1]; 0.05 μg/cm^2, read-out: BAW Percent control (or mortality)
  mortality at 0.05 µg/cm2: 0%
[1]; 0.5 μg/cm^2, read-out: BAW Percent control (or mortality)
  mortality at 0.5 µg/cm2: 19%
[1]; 5 μg/cm^2, read-out: BAW Percent control (or mortality)
  mortality at 5 µg/cm2: 100%
[2]
  mortality at 50 µg/cm2: 50 to 100%
[2]; 0.05 μg/cm^2, read-out: CL Percent control (or mortality)
  mortality at 0.05 µg/cm2: 0%
[2]; 0.5 μg/cm^2, read-out: CL Percent control (or mortality)
  mortality at 0.5 µg/cm2: 7%
[2]; 5 μg/cm^2, read-out: CL Percent control (or mortality)
  mortality at 5 µg/cm2: 100%
